Literature values in patent US20250231185A1, “Coronavirus T Cell Epitopes, Megapools and Uses Thereof” (La Jolla Institute for Immunology, priority 2021, published 2025).
Entries after “also recorded” stand apart in the source; their conditions may differ.

Test system: CD4+ T cells
Settings: cited from earlier work; for Allele(s): HLA class II allele(s) identified as MHC restriction elements of the CD4 epitope; for Restriction: T cell subset (CD4 or CD8) recognizing the SARS-CoV-2 epitope; for Dominant: SARS-CoV-2-derived CD4 epitopes, Yes = recognized by 3 or more donors/different studies; for Allele(s) (HLA restriction): CD4-restricted epitopes, HLA class II alleles identified as MHC restriction elements

21 (FIASFRLFARTRSMW) [compound 21]
Allele(s): DQB1*05:03, DRB1*03:01,; also recorded: DRB1*14:01
Restriction: CD4

6 (LLEQWNLVIGFLFLT) [compound 6]
Allele(s): DQB1*02:01, DQB1*05:03
Restriction: CD4

20 (MWLSYFIASFRLFAR) [compound 20]
Allele(s): DQB1*02:01, DQB1*05:01,; also recorded: DQB1*05:02, DQB1*05:03,; also recorded: DRB1*03:01, DRB1*14:01,; also recorded: DRB1*14:06, DRB1*16:01,; also recorded: DRB1*16:02
Dominant: Yes (more dominant epitopes are defined by being recognized by 3 or more donors/different studies)
Restriction: CD4

15 (VLAAVYRINWITGGI) [compound 15]
Allele(s): DQB1*05:01, DQB1*05:03,; also recorded: DRB1*12:02, DRB1*14:01
Dominant: Yes (more dominant epitopes are defined by being recognized by 3 or more donors/different studies)
Restriction: CD4

93 (GMEVTPSGTWLTYTG) [compound 93]
Restriction: CD4

84 (FGDQELIRQGTDYKH) [compound 84]
Restriction: CD4

87 (YKHWPQIAQFAPSAS) [compound 87]
Dominant: Yes (more dominant epitopes are defined by being recognized by 3 or more donors/different studies)
Restriction: CD4

69 (KDGIIWVATEGALNT) [compound 69]
Dominant: Yes (more dominant epitopes are defined by being recognized by 3 or more donors/different studies)
Restriction: CD4

3 (LAILTALRLCAYCCN) [compound 3]
Allele(s): DRB1*01:01, DRB1*11:01
Restriction: CD4

101 (ILLNKHIDAYKTFPP) [compound 101]
Allele(s): DRB1*14:06, DRB1*15:01
Dominant: Yes (more dominant epitopes are defined by being recognized by 3 or more donors/different studies)
Restriction: CD4

43 (SYYKLGASQRVAGDS) [compound 43]
Allele(s): DQB1*03:01, DRB1*01:01,; also recorded: DRB1*07:01
Dominant: Yes (more dominant epitopes are defined by being recognized by 3 or more donors/different studies)
Restriction: CD4

92 (GMEVTPSGTWLTYTGAIKLD) [compound 92]
Dominant: Yes (more dominant epitopes are defined by being recognized by 3 or more donors/different studies)
Restriction: CD4

38 (KEITVATSRTLSYYK) [compound 38]
Allele(s): DQB1*06:03, DRB1*03:01,; also recorded: DRB1*07:01, DRB1*14:01,; also recorded: DRB1*14:06, DRB1*15:01,; also recorded: DRB1*16:02
Dominant: Yes (more dominant epitopes are defined by being recognized by 3 or more donors/different studies)
Restriction: CD4

99 (PNFKDQVILLNKHIDAYK) [compound 99]
Restriction: CD4

46 (SGFAAYSRYRIGNYK) [compound 46]
Allele(s): DRB1*15:01
Dominant: Yes (more dominant epitopes are defined by being recognized by 3 or more donors/different studies)
Restriction: CD4

47 (YSRYRIGNYKLNTDH) [compound 47]
Restriction: CD4

51 (NAPRITFGGPSDSTG) [compound 51]
Allele(s): DQB1*03:01
Restriction: CD4

56 (FPRGQGVPINTNSSP) [compound 56]
Restriction: CD4

30 (GAVILRGHLRIAGHHLGR) [compound 30]
Dominant: Yes (more dominant epitopes are defined by being recognized by 3 or more donors/different studies)
Restriction: CD4

82 (TQAFGRRGPEQTQGN) [compound 82]
Restriction: CD4

86 (TDYKHWPQIAQFAPS) [compound 86]
Restriction: CD4

96 (TWLTYTGAIKLDDKDPNF) [compound 96]
Restriction: CD4

52 (TFGGPSDSTGSNQNG) [compound 52]
Allele(s): DQB1*03:01
Restriction: CD4

4 (FYVYSRVKNLNSSRV) [compound 4]
Dominant: Yes (more dominant epitopes are defined by being recognized by 3 or more donors/different studies)
Restriction: CD4

60 (YYRRATRRIRGGDGK) [compound 60]
Allele(s): DRB1*13:01, DRB1*14:06
Dominant: Yes (more dominant epitopes are defined by being recognized by 3 or more donors/different studies)
Restriction: CD4

77 (AAEASKKPRQKRTAT) [compound 77]
Dominant: Yes (more dominant epitopes are defined by being recognized by 3 or more donors/different studies)
Restriction: CD4

83 (RRGPEQTQGNFGDQE) [compound 83]
Restriction: CD4

2 (FLLVTLAILTALRLC) [compound 2]
Restriction: CD4

257 (VKHVYQLRARSVSPK) [compound 257]
Allele(s) (HLA restriction): DRB1*01:03, DRB1*07:01

94 (PSGTWLTYTGAIKLD) [compound 94]
Allele(s): DQB1*06:03, DRB1*01:02,; also recorded: DRB1*01:03, DRB1*07:01,; also recorded: DRB1*15:01
Dominant: Yes (more dominant epitopes are defined by being recognized by 3 or more donors/different studies)
Restriction: CD4

91 (AFFGMSRIGMEVTPS) [compound 91]
Restriction: CD4

41 (SRTLSYYKLGASQRV) [compound 41]
Allele(s): DRB5*01:01, DRB5*01:02
Dominant: Yes (more dominant epitopes are defined by being recognized by 3 or more donors/different studies)
Restriction: CD4

5 (EELKKLLEQWNLVIG) [compound 5]
Allele(s): DQB1*05:01, DQB1*05:02
Restriction: CD4

74 (DAALALLLLDRLNQL) [compound 74]
Allele(s): DQB1*05:01, DQB1*05:03,; also recorded: DQB1*06:02, DRB1*03:01,; also recorded: DRB1*11:01, DRB1*12:01,; also recorded: DRB1*14:01, DRB1*15:01
Dominant: Yes (more dominant epitopes are defined by being recognized by 3 or more donors/different studies)
Restriction: CD4

58 (DDQIGYYRRATRRIR) [compound 58]
Allele(s): DRB1*01:03, DRB1*07:01,; also recorded: DRB1*13:01, DRB1*14:01,; also recorded: DRB1*14:06, DRB1*15:01,; also recorded: DRB1*16:02
Dominant: Yes (more dominant epitopes are defined by being recognized by 3 or more donors/different studies)
Restriction: CD4

12 (LYIIKLIFLWLLWPV) [compound 12]
Allele(s): DQB1*02:01, DRB1*12:01
Restriction: CD4

23 (TRSMWSFNPETNILL) [compound 23]
Allele(s): DQB1*05:03, DRB1*01:02
Restriction: CD4

68 (NKDGIIWVATEGALN) [compound 68]
Allele(s): DQB1*02:01, DQB1*02:02,; also recorded: DQB1*03:02, DQB1*05:03,; also recorded: DRB1*04:04, DRB1*07:01
Dominant: Yes (more dominant epitopes are defined by being recognized by 3 or more donors/different studies)
Restriction: CD4

104 (KQQTVTLLPAADLDDF) [compound 104]
Restriction: CD4

49 (LNTDHSSSSDNIALL) [compound 49]
Restriction: CD4

37 (IKDLPKEITVATSRT) [compound 37]
Dominant: Yes (more dominant epitopes are defined by being recognized by 3 or more donors/different studies)
Restriction: CD4

59 (IGYYRRATRRIRGGD) [compound 59]
Dominant: Yes (more dominant epitopes are defined by being recognized by 3 or more donors/different studies)
Restriction: CD4

54 (SWFTALTQHGKEDLK) [compound 54]
Dominant: Yes (more dominant epitopes are defined by being recognized by 3 or more donors/different studies)
Restriction: CD4

253 (YIINLIIKNLSKSLT) [compound 253]
Allele(s) (HLA restriction): DRB1*11:02, DRB1*13:03

55 (LTQHGKEDLKFPRGQ) [compound 55]
Restriction: CD4

34 (LRIAGHHLGRCDIKD) [compound 34]
Restriction: CD4

16 (YRINWITGGIAIAMA) [compound 16]
Allele(s): DQB1*02:02, DQB1*03:01,; also recorded: DQB1*05:01, DQB1*05:02,; also recorded: DQB1*05:03, DQB1*06:02,; also recorded: DQB1*06:03, DRB1*07:01,; also recorded: DRB1*10:01, DRB1*12:01,; also recorded: DRB1*13:01, DRB1*14:01,; also recorded: DRB1*15:01, DRB1*16:01
Dominant: Yes (more dominant epitopes are defined by being recognized by 3 or more donors/different studies)
Restriction: CD4

31 (GAVILRGHLRIAGHH) [compound 31]
Allele(s): DRB1*13:01, DRB1*15:01
Restriction: CD4

71 (EGALNTPKDHIGTRN) [compound 71]
Restriction: CD4

35 (IAGHHLGRCDIKDLP) [compound 35]
Dominant: Yes (more dominant epitopes are defined by being recognized by 3 or more donors/different studies)
Restriction: CD4

26 (NVPLHGTILTRPLLE) [compound 26]
Restriction: CD4

108 (EEIAIILASFSASTS) [compound 108]
Allele(s): DQB1*02:02, DQB1*03:02,; also recorded: DRB1*04:10, DRB1*07:01
Restriction: CD4

19 (CLVGLMWLSYFIASF) [compound 19]
Allele(s): DQB1*05:01, DQB1*05:03,; also recorded: DRB1*12:01, DRB1*12:02
Dominant: Yes (more dominant epitopes are defined by being recognized by 3 or more donors/different studies)
Restriction: CD4

10 (QFAYANRNRFLYIIK) [compound 10]
Allele(s): DRB1*14:01
Dominant: Yes (more dominant epitopes are defined by being recognized by 3 or more donors/different studies)
Restriction: CD4

1 (SEETGTLIVNSVLLF) [compound 1]
Allele(s): DQB1*03:01
Restriction: CD4

65 (PRWYFYYLGTGPEAG) [compound 65]
Allele(s): DQB1*02:01, DQB1*05:03
Restriction: CD4

97 (LTYTGAIKLDDKDPN) [compound 97]
Allele(s): DRB1*07:01
Restriction: CD4

45 (RVAGDSGFAAYSRYR) [compound 45]
Restriction: CD4

39 (ATSRTLSYYKLGASQ) [compound 39]
Allele(s): DQB1*05:01, DQB1*05:03,; also recorded: DRB1*16:01
Restriction: CD4

100 (FKDQVILLNKHIDAY) [compound 100]
Allele(s): DRB1*03:01, DRB1*14:01,; also recorded: DRB1*14:06, DRB1*15:01,; also recorded: DRB1*16:02
Dominant: Yes (more dominant epitopes are defined by being recognized by 3 or more donors/different studies)
Restriction: CD4
